From patent publication US12466817B2, “Pyridine derivative and application thereof” (Nicoya Therapeutics (Shanghai) Co., Ltd, priority 2020, dated 2025)

What was measured:
CCR2 = biological target: T1, CCR2 (Homo sapiens, UniProt P41597); test: CCR2 FLIPR Calcium assay (intracellular calcium signaling); format: cell-based; conditions: HEK293 host cells, clone C7; agonist MCP-1; Fluo-4 calcium signal
T1 construct: expressed in transfected cells; host or cells: HEK293, clone C7, passage P6
Method: (§1) The inhibitory effects of the compounds on CCR2 and CCR5 receptors were evaluated by detecting intracellular calcium signaling changes by FLIPR Calcium assay, using the IC50 values of the compounds as indicators.
(§2) 1. Cell lines: The cells were seeded and incubated overnight at 37° C. in a 5% CO2 incubator CCR2/CCR5 density: 1 M (20 k/well)
(§3) 2. Reagent: Fluo-4 Direct, (Invitrogen, Cat #F10471)
(§4) The compound was prepared by dissolving in DMSO to a 10 mM solution, and the compound solution was placed in a nitrogen chamber.
(§5) Preparation of probenecid in FLIPR assay buffer: 1 mL of FLIPR assay buffer was added to 77 mg of probenecid to make a 250 mM solution. The solution was prepared every day to keep fresh.
(§6) 2× (8 μM) Fluo-4 Direct™ loading buffer (10 mL of each)
(§7) 0.2 mL of probenecid was added to each 10 mL of Fluo-Direct. The final measured concentration was 2.5 mM MCP-1 was diluted in FLIPR assay buffer 1:2 for 10 spots, starting at 0.5 μM (eventually to […]). RANTES was diluted in FLIPR assay buffer 1:3 for 10 spots, starting at 0.5 μM (eventually to […]). 20 μL of serially diluted compound buffer was added to each well of the DRC plate.
(§8) The standard compound was diluted in DMSO 1:3 for 11 points, starting at 1 mM.
(§9) The test compound was diluted in DMSO 1:3 for 11 spots, starting at 2 mM. 250 nL of compound solution was transferred to cell plates using Echo (Greiner #781946) c) The cell plate was taken from the incubator and 20 μL of 2× Fluo-4 Direct no wash loading buffer was gently dispensed into a 384-well cell culture plate using a pipette. The volume in the final cell plate was 40 μL […]
(§10) d) Incubation was conducted at 37° C. 5% CO2 for 50 minutes, at room temperature for 10 minutes e) The cell plate was taken from the incubator and placed in the FLIPR. The composite plate and pipette tip box were placed in the FLIPR
(§11) 5) The “Max-Min” was calculated from Read 90 to the maximum allowed. EC80 values for each cell line were calculated using FLIPR
(§12) 6) Agonist reference compound at 5 times EC80 concentration was prepared 2) 10 μL of agonist reference compound at 5 times EC80 concentration was transferred from the composite plate to the cell plate.
(§13) 3) Fluorescence signals were read.
(§14) 4) The “Max-Min” was calculated from Read 90 to the maximum allowed h) Data was analyzed by using Prism, the IC50 values of the compounds were calculated.

CCR5 = biological target: T2, CCR5 (Homo sapiens, UniProt P51681); test: CCR5 FLIPR Calcium assay (intracellular calcium signaling); format: cell-based; conditions: HEK293 host cells, clone C13; agonist RANTES; Fluo-4 calcium signal
T2 construct: expressed in transfected cells; host or cells: HEK293, clone C13, passage P4
T2 sequence (P51681 whole entry, species assumed): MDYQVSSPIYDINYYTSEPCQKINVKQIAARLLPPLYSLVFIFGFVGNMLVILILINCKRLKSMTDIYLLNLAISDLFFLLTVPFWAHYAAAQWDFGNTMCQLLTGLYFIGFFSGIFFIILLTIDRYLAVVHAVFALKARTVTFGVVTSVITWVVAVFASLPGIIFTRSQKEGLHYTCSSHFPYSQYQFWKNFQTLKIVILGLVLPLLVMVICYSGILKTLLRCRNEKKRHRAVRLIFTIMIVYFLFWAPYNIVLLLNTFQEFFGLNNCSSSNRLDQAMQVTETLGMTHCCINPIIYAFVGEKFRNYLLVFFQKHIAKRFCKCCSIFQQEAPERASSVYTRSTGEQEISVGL
Method: as §1, §2, §3, §4, §5, §6, §7, §8, §9, §10, §11, §12, §13, §14

CYP1A2 = biological target: T3, CYP1A2 (Homo sapiens, UniProt P05177); test: Inhibition of human liver microsomal CYP1A2 activity; format: in vitro ADME; conditions: human liver microsomes, probe substrate phenacetin, NADPH
T3 construct: from tissue; host or cells: human liver microsomes
T3 sequence (P05177 1-516): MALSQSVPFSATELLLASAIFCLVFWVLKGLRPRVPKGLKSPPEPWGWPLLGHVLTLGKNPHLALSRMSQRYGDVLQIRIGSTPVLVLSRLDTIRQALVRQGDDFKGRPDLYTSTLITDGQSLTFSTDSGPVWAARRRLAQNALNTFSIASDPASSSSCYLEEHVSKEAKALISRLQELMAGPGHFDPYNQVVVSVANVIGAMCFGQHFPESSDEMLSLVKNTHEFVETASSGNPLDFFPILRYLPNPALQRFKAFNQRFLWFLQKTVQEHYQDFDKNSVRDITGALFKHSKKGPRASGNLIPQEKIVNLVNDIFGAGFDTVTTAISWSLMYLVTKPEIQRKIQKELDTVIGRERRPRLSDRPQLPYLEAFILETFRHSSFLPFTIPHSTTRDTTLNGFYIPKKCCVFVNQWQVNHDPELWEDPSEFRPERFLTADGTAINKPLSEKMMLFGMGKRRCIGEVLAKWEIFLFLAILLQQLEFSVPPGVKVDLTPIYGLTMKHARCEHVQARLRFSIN
Method: (§15) A total of five specific probe substrates for the five isozymes of CYP, phenacetin (CYP1A2), diclofenac (CYP2C9), (S′)-mephenytoin (CYP2C19), dextromethorphan ([…]), and midazolam (CYP3A4), were incubated respectively with human liver microsomes and the test compounds, and the reaction was initiated by the addition of reduced nicotinamide adenine dinucleotide phosphate (NADPH), and the samples were treated and the concentrations of the five metabolites produced by the specific substrates, acetaminophen, 4′-hydroxydiclofenac, 4′-hydroxymephenytoin, dextrorphan and 1′-hydroxymidazolam were measured by liquid chromatography tandem mass spectrometry (LC-MS/MS) after the end of the reaction, and the corresponding half maximal inhibitory concentrations (IC50) were calculated.

CYP2C9 = biological target: T4, CYP2C9 (Homo sapiens, UniProt P11712); test: Inhibition of human liver microsomal CYP2C9 activity; format: in vitro ADME; conditions: human liver microsomes, probe substrate diclofenac, NADPH
T4 construct: from tissue; host or cells: human liver microsomes
T4 sequence (P11712 whole entry): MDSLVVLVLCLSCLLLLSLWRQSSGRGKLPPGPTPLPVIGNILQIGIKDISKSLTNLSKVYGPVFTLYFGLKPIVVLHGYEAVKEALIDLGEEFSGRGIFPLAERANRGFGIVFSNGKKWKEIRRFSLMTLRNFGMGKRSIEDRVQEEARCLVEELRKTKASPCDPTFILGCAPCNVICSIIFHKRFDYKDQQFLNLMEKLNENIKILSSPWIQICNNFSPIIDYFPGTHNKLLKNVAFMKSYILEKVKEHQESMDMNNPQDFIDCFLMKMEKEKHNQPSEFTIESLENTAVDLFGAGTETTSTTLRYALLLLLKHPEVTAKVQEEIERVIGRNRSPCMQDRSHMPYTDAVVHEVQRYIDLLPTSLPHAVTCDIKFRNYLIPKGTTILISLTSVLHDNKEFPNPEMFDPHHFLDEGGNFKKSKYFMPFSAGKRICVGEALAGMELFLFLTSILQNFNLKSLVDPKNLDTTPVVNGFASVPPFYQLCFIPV
Method: as §15

CYP2C19 = biological target: T5, CYP2C19 (Homo sapiens, UniProt P33261); test: Inhibition of human liver microsomal CYP2C19 activity; format: in vitro ADME; conditions: human liver microsomes, probe substrate (S)-mephenytoin, NADPH
T5 construct: from tissue; host or cells: human liver microsomes
T5 sequence (P33261 whole entry): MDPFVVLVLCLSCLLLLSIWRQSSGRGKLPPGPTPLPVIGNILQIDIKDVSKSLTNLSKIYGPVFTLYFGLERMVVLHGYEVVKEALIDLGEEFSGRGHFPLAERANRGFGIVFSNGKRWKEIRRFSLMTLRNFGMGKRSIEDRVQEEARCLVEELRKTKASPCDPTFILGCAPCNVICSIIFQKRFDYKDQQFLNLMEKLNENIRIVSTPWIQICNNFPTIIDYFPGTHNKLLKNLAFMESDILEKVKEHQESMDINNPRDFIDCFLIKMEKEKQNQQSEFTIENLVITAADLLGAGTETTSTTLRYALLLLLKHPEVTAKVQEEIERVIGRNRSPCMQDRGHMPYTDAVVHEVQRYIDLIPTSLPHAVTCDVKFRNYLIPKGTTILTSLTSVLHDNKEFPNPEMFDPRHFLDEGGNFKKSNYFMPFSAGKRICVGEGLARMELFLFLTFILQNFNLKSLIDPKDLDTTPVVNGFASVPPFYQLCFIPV
Method: as §15

CYP2D6 = biological target: T6, CYP2D6 (Homo sapiens, UniProt P10635); test: Inhibition of human liver microsomal CYP2D6 activity; format: in vitro ADME; conditions: human liver microsomes, probe substrate dextromethorphan, NADPH
T6 construct: from tissue; host or cells: human liver microsomes
T6 sequence (P10635 whole entry): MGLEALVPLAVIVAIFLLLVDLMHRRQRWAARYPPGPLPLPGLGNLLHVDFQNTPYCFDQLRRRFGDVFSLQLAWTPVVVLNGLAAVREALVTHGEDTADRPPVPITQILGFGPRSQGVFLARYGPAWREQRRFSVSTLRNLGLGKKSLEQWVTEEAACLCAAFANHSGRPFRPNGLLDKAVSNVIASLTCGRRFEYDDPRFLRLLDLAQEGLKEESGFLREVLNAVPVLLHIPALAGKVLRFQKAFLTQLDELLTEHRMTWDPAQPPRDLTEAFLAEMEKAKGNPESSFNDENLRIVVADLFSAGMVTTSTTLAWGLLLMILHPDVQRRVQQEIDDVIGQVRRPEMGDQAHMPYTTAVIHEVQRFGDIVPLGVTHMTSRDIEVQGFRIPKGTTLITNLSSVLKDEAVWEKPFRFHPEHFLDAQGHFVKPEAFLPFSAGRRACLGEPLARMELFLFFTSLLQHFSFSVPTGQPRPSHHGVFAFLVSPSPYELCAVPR
Method: as §15

CYP3A4 = biological target: T7, CYP3A4 (Homo sapiens, UniProt P08684); test: Inhibition of human liver microsomal CYP3A4 activity; format: in vitro ADME; conditions: human liver microsomes, probe substrate midazolam, NADPH
T7 construct: from tissue; host or cells: human liver microsomes
T7 sequence (P08684 whole entry): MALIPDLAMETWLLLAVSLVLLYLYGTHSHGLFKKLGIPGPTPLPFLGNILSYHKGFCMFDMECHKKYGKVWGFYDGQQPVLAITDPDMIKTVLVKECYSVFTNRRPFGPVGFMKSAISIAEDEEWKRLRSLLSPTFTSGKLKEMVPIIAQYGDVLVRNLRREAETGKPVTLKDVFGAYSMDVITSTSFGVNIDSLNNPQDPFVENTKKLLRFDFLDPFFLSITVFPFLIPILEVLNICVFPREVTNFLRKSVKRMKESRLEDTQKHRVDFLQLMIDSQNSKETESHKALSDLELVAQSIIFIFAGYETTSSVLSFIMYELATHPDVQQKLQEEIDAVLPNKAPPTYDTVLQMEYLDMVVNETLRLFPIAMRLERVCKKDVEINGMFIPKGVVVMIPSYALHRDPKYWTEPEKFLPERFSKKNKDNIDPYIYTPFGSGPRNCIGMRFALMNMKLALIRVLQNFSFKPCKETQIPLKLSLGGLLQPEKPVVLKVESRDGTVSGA
Method: as §15

[1] = system: human liver microsomal cytochrome P450 isozymes (CYP1A2, CYP2B6, CYP2C8, CYP2C9, CYP2C19, CYP2D6 and CYP3A4); test: Inhibition of human liver microsomal cytochrome P450 isozymes, overall conclusion; format: in vitro ADME; conditions: human liver microsomes
Method: as §15

[2] = Comparative pharmacokinetic test in mice; format: in vivo, C57BL/6 male mice
Method: C57BL/6 male mice were used as test animals in the present study, and the plasma drug concentrations of the test compound WX009 and the reference compound in mice by intravenous administration or oral administration were quantified by LC/MS/MS method at different time points respectively to evaluate the pharmacokinetic characteristics of the two test drugs in mice.
A clarified solution of the test compound was injected via tail vein into C57BL/6 mice (overnight fasting, 7-10 weeks old), and the test compound was given by gavage into C57BL/6 mice (overnight fasting, 7-10 weeks old). Approximately 30 μL of blood was collected from the jugular or tail vein at 0.0833, 0.25, 0.5, 1, 2, 4, 6, 8, and 24 hours after administration, and placed in anticoagulation tubes added with EDTA-K2, then centrifuged at 4° C. for 15 minutes at 3000 g to give the plasma. Plasma drug concentration was determined by LC-MS/MS, and relevant pharmacokinetic parameters were calculated using WinNonlin™ Version 6.3 (Pharsight, Mountain View, CA) pharmacokinetic software with a non-compartmental model linear logarithmic trapezoidal method.

T1 sequence (P41597 whole entry, species assumed): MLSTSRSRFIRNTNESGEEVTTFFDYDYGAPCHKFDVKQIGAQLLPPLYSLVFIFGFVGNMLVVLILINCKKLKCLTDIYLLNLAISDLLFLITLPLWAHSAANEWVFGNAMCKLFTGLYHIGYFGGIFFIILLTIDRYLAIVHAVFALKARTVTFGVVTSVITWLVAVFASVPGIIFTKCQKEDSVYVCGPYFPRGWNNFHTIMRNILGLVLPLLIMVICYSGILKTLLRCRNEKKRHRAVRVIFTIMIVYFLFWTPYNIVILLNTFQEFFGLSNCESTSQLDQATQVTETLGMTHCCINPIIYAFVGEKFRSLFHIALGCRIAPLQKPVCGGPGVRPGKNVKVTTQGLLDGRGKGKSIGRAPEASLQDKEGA

IC50 (CCR2)	IC50 (CCR5)	IC50 (CYP1A2)	IC50 (CYP2C9)	IC50 (CYP2C19)	IC50 (CYP2D6)	IC50 (CYP3A4)	Risk of inhibition of human liver microsomal cytochrome P450 isozymes (in words) [1]	half-life ([2]; male, C57BL/6, mouse, plasma, mice, intravenous injection 2 mg/kg)	clearance ([2]; male, C57BL/6, mouse, plasma, mice, intravenous injection 2 mg/kg, read-out: Plasma clearance rate)	bioavailability ([2]; male, C57BL/6, mouse, plasma, mice, oral 10 mg/kg)	Plasma clearance rate compared with the reference compound (in words) ([2]; mice, intravenous)	Oral plasma systemic exposure (AUC0-inf) relative to the reference compound ([2]; mice, oral)	Area under the time-concentration curve (0-inf) ([2]; mice, oral 10 mg/kg)	Peak concentration ([2]; mice, oral 10 mg/kg)	Peak time ([2]; mice, oral 10 mg/kg)	Pharmacokinetics compared with the reference compound (in words) ([2]; rodent mice)	Compound
1.96 nM	5.74 nM	> 50 µM	> 50 µM	> 50 µM	> 50 µM	> 50 µM	no risk of inhibition	–	–	–	–	–	–	–	–	–	CCCCOCCOc1ccc(-c2ccc3c(c2)C=C(C(=O)Nc2ccc([S+]([O-])Cc4c(CC)ccnc4C)cc2)CCCN3CC2CCOCC2)cc1 (single isomer, unassigned) [WX007]
1.84 nM	4.64 nM	> 50 µM	> 50 µM	> 50 µM	> 50 µM	4.6 µM	no risk of inhibition	264 min	0.46 mL/min/kg	8%	slower	approximately six times higher	37.356 µM·h	5.076 µM	2.0 h	significantly better	CCCCOCCOc1ccc(-c2ccc3c(c2)C=C(C(=O)Nc2ccc([S+]([O-])Cc4c(CC)ccnc4C)cc2)CCCN3CC2CCCO2)cc1 (single isomer, unassigned) [WX009]
1.5 nM	8.4 nM	> 50 µM	22.6 µM	10.1 µM	> 50 µM	> 50 µM	no risk of inhibition	–	–	–	–	–	–	–	–	–	CCCCOCCOc1ccc(-c2ccc3c(c2)C=C(C(=O)Nc2ccc([S+]([O-])Cc4cnc(C)cc4CC)cc2)CCCN3CC2CCOCC2)cc1 (single isomer, unassigned) [WX012]
